From US8344178B2, “Processes for producing and recovering shikimic acid” (priority 2007, dated 2013)

Legend:
Soybean = assay: Shikimate accumulation in soybean after glyphosate treatment (Example 2, FIG. 6); format: in vivo; settings: ROUNDUP WEATHERMAX at 100, 200, 400 and 800 g a.e./ha; 1, 2, 3 and 4 days after treatment
Method: Soybean plants were established in a greenhouse in 4 inch pots and treated with glyphosate at an early vegetative stage. Approximately 1 plant per pot was treated at the V2 growth stage. Plants were treated with ROUNDUP WEATHERMAX in a track sprayer, at 0, 100, 200, 400 and 800 g a.e./ha and returned to the greenhouse. All treatments were replicated 5 times. Leaves were harvested at five time points: immediately after spray (t0), and at 1, 2, 3 and 4 days after treatment. After harvest, leaves were frozen on dry ice, weighed, and then stored at −80 C until extraction and analysis.
(§1) For t0 harvest, leaves were harvested immediately after treatment. For the 1, 2, 3 and 4 day harvest, plants were washed thoroughly with water from a spray hose and then allowed to dry before harvest. This procedure allowed for the measurement of the concentration of shikimic acid as well as an estimate of the concentration of glyphosate treatment (t0) and the amount of glyphosate absorbed and retained in treated leaves (1, 2, 3 and 4 days after treatment).
(§2) Leaf tissue was ground frozen on dry ice to a frozen powder. […]
(§3) Extract analysis was performed using both HPLC/MS and HPLC/uv (210 nm) detection. […] Shikimic acid was also analyzed on a separate Agilent 1100 HPLC system equipped with a 4.6 mm×250 mm, 5 micron ODS2 Waters Spherisorb® column (P/N PSS831915) using a photodiode array detector.

[1] = tested on: E. coli host strain LBB427 transformed with plasmid pXT1483; assay: Shikimic acid from a phosphate-limited high-density fermentation culture with glyphosate (Example 10); format: cell-based, Escherichia coli; settings: optical density of 40; 20 millimolar; twelve hours after addition; sample at pH 1.0, 60 degrees Celsius for 15 minutes
Method: The host strain LBB427 transformed with the plasmid pXT1483 can be grown to high optical densities in a phosphate-limited fermentation culture. Fermentations are conducted in a chemically-defined minimal medium containing 5.9 grams of anhydrous ammonium sulfate ((NH4)2SO4), 1.8 grams of anhydrous dibasic potassium phosphate (K2HPO4), 1.0 grams of monobasic sodium phosphate monohydrate (NaH2PO4—H2O), 550 milligrams of magnesium sulfate heptahydrate (MgSO4-7H2O), 27 milligrams of ferric chloride hexahydrate (FeCl3-6H2O), 0.5 milligrams of zinc sulfate heptahydrate (ZnSO4-7H2O), 0.9 milligrams of cobalt chloride hexahydrate (CoCl2-6H2O), 0.9 milligrams of sodium molybdate dihydrate (Na2MoO4-2H2O), 1.1 milligrams of cupric sulfate pentahydrate (CuSO4-5H2O), 0.3 milligrams of boric acid (H3BO3), and 0.7 milligrams of manganese sulfate monohydrate (MnSO4—H2O) per liter of water. The fermenter is maintained at 37 degrees Celsius. The pH is maintained at 7.0 by the controlled addition of concentrated (about 29%) ammonium hydroxide (NH4OH). […]
Twelve hours after N-(phosphonomethyl)glycine addition, samples of the fermentation cultures are taken for analysis of shikimic acid levels. […] The cells are pelleted by centrifugation, and the culture supernatants are analyzed for shikimic acid content using the HPLC assay described in Example 5.

[2] = tested on: E. coli host strain LBB427, untransformed or transformed with plasmid pXT1457 or pXT1483; assay: Growth of E. coli strains under phosphate-limiting conditions combined with glyphosate treatment (Example 9); format: cell-based, Escherichia coli; settings: for Shikimic acid in the culture supernatant: phosphate-limitation, 20 millimolar, 21.5 hours after addition
Source text: A phosphate-limiting culture medium was developed by the Applicants, containing anhydrous magnesium sulfate (MgSO4) at 192 milligrams per liter, ammonium chloride (NH4Cl) at 5.35 grams per liter, potassium chloride (KCl) at 3.73 grams per liter, sodium chloride (NaCl) at 1.17 grams per liter, triethanolamine (a buffering compound) at 22.3 grams per liter, and glucose at 1.5 grams per liter. The pH of the culture medium was 7.0. […] This culture medium was designated PF culture medium (standing for phosphate-free culture medium). However, a phosphate-limiting medium may be formulated for use in the present invention such that, while not phosphate-free, it contains minimal amounts of phosphate (i.e., is substantially free of phosphate). […] Generally, such a phosphate-limiting medium should contain phosphate at levels no more than about 1 millimolar, and preferably at levels no more than about 100 micromolar.
For pre-growth of the strains, sources of phosphate were supplied to this culture medium in the form of Casamino acids at 2.2 grams per liter and yeast extract at 300 milligrams per liter. This culture medium was designated PF-CAA/YE culture medium (standing for PF culture medium plus Casamino acids and yeast extract).
The untransformed host strain LBB427 and the host strain LBB427 transformed with the plasmid pXT1457 or with the plasmid pXT1483 were grown initially in 50 milliliters of the PF-CAA/YE culture medium described in Example 8. For the strains of LBB427 transformed with the plasmid pXT1457 or with the plasmid pXT1483, ampicillin was included in the culture medium at 100 milligrams per liter. The cultures were grown for 2.5 hours in flasks, on an incubator shaker operating at 300 rpm and 37 degrees Celsius. The cells in these cultures were pelleted by centrifugation and resuspended in the same volume of the PF culture medium described in Example 8. For the strains of LBB427 transformed with the plasmid pXT1457 or with the plasmid pXT1483, ampicillin was included in the culture medium at 100 milligrams per liter. To these resuspended cultures, N-(phosphonomethyl)glycine was added to a concentration of 3.38 grams per liter (20 millimolar). […] At 24 hours after inoculation (i.e., 21.5 hours after N-(phosphonomethyl)glycine addition), the cells were pelleted by centrifugation, and the culture supernatants were analyzed for shikimic acid content using the HPLC assay described in Example 5.
It is possible that not all of the accumulated shikimate-3-phosphate in these cells had been converted into shikimic acid and excreted into the culture medium. […] The cells were pelleted by centrifugation, and the culture supernatant was analyzed for shikimic acid content using the HPLC assay described in Example 5.

Alfalfa = assay: Shikimate accumulation in alfalfa over time after glyphosate treatment (Example 1, FIG. 5); format: in vivo; settings: ROUNDUP WEATHERMAX at 100, 200, 400 and 800 g a.e./ha; 1, 2, 3 and 4 days after treatment
Method: Alfalfa was established in a greenhouse in 4 inch pots and treated with glyphosate at an early vegetative stage. Approximately 8 plants per pot were treated at the V4 growth stage. Plants were treated with ROUNDUP WEATHERMAX in a track sprayer, at 0, 100, 200, 400 and 800 g a.e./ha and returned to the greenhouse. All treatments were replicated 5 times. Leaves were harvested at five time points: immediately after spray (t0), and at 1, 2, 3 and 4 days after treatment. After harvest, leaves were frozen on dry ice, weighed, and then stored at −80 C until extraction and analysis.
as §1, §2, §3

[3] = tested on: E. coli K-12 host strain LBB427, untransformed or transformed with plasmid pXT1457; assay: Treatment of E. coli strains with glyphosate in Vogel-Bonner minimal culture medium (Example 7); format: cell-based, Escherichia coli
Method: To confirm that the new plasmid was functioning as expected, the wild-type E. coli K-12 host strain LBB427 was transformed with the plasmid pXT1457. Techniques for transforming bacteria, including strains of E. coli, are known in the art (Sambrook and Russell, 2001; Ausubel et al., 2005). The shikimic acid and phenylalanine production levels of this strain were compared to that of the untransformed host strain LBB427. The strains were cultured in 50 milliliters of Vogel-Bonner minimal culture medium (Vogel and Bonner, 1956), consisting of magnesium sulfate heptahydrate (MgSO4-7H2O) at 298 milligrams per liter, anhydrous dibasic potassium phosphate (K2HPO4) at 14.93 grams per liter, sodium ammonium phosphate tetrahydrate (NaNH4HPO4-4H2O) at 5.22 grams per liter, anhydrous citric acid (the free acid form) at 2.73 grams per liter, and glucose at 2.00 grams per liter. The pH of the culture medium was 7.0. For the strain LBB427 transformed with the plasmid pXT1457, ampicillin was included in the culture medium at 100 milligrams per liter. The cultures were grown in flasks, on an incubator shaker operating at 300 rpm and 37 degrees Celsius. At 24 hours after inoculation, the cells were pelleted by centrifugation, and the culture supernatants were analyzed by a high-pressure liquid chromatography (HPLC) assay for shikimic acid and phenylalanine content. To the samples to be assayed, phosphoric acid was added to a final concentration of 6 millimolar. The samples were injected onto a 0.5 centimeter by […] Altec 5 micron Bondapak C-18 column, and the eluate was scanned from 190 to 300 nanometers.
The untransformed host strain LBB427 and the host strain LBB427 transformed with the plasmid pXT1457 were grown in 50 milliliters of the Vogel-Bonner minimal culture medium described in Example 5. For the strain LBB427 transformed with the plasmid pXT1457, ampicillin was included in the culture medium at 100 milligrams per liter. The cultures were grown in flasks, on an incubator shaker operating at 300 rpm and 37 degrees Celsius. At 2.5 hours after inoculation, N-(phosphonomethyl)glycine was added to a concentration of 3.38 grams per liter (20 millimolar). […] At 24 hours after inoculation (i.e., 21.5 hours after N-(phosphonomethyl)glycine addition), the cells were pelleted by centrifugation, and the culture supernatants were analyzed for shikimic acid content using the HPLC assay described in Example 5. The culture supernatants of the host strain LBB427 transformed with the plasmid pXT1457 were also analyzed for phenylalanine content.

[4] = LBB427 transformed with pXT1457, 20 millimolar, 21.5 hours after addition

O=C(O)CNCP(=O)(O)O [glyphosate, N-(phosphonomethyl)glycine]
Shikimic acid accumulation in soybean leaves (Soybean): accumulates to significantly high levels
Shikimic acid in the culture supernatant [1]: about 24 grams of shikimic acid per liter
Shikimic acid in the culture supernatant ([2]; LBB427 transformed with pXT1457): about 250 milligrams of shikimic acid per OD unit per liter
Shikimic acid in the culture supernatant ([2]; LBB427 transformed with pXT1483): about 400 milligrams of shikimic acid per OD unit per liter
Level of shikimic acid in the culture supernatant after acid and heat treatment of the culture sample ([2]; LBB427 transformed with pXT1483, sample with cells adjusted to pH 1.0, 60 degrees Celsius for 15 minutes): about 600 milligrams per OD unit per liter
Shikimic acid in the culture supernatant ([2]; untransformed host strain LBB427): about 200 milligrams of shikimic acid per OD unit per liter
Shikimic acid accumulation in alfalfa leaves over time (Alfalfa): accumulates to significantly high levels
Growth of the cultures ([3]; 3.38 grams per liter (20 millimolar), added 2.5 hours after inoculation, LBB427 and LBB427 with pXT1457): almost completely inhibited
Phenylalanine in the culture supernatant [3, 4]: about 50 milligrams of phenylalanine per OD unit per liter
Shikimic acid in the culture supernatant [3, 4]: did not produce detectable levels
Shikimic acid in the culture supernatant ([3]; untransformed host strain LBB427, 20 millimolar, 21.5 hours after addition): did not produce detectable levels
